Experimental data published in publication PMC7669869, “AdipoR1/AdipoR2 dual agonist recovers nonalcoholic steatohepatitis and related fibrosis via endoplasmic reticulum-mitochondria axis” (Nature Communications, 2020).
Non-standard residues stand in square brackets, D forms with d. Residues, ends and D or L forms follow the SMILES beside them. Nva = CCC[C@H](N)C(=O)O

Experiments:
PA induced HepG2 cells = experiment: Mitochondrial content assay (MitoTracker), PA induced HepG2; format: cell-based, human; details: HepG2, PA + 200 μM JT003; in words
Method: 60–70% confluent LX2 cells and PA induced HepG2 cells were washed with PBS twice and incubated with 100 nM MitoTracker Green FM (YeSan, China) at 37 °C for 30 min For fluorescence intensity assay, cells were harvested by using trypsin/EDTA (ThermoFisher Scientific, USA) and resuspended in PBS. The excitation and emission wavelengths were 490 and 516 nm, respectively, and the intensity values corrected for total protein level (mg ml^−1). For mitochondrial visualized assay, after incubated with MitoTracker Green FM, the adherent cells were washed with PBS and a single in-focus optical section was acquired with confocal microscopy (Olympus, Japan). The nucleus was stained with Hochest33342 (ThermoFisher Scientific, USA). For every section n = 50 cells, images were analyzed and quantified by ImageJ.

[1] = system: CCl4 induced liver fibrosis mice; experiment: CCl4 mice: apoptosis assay (TUNEL); format: in vivo, mouse; parameters: unit not given here; details: CCl4 + JT003 mice
Method: Male mice liver fibrosis was induced by intraperitoneal injection of 20% CCl4 (Sigma, USA) diluted in corn oil (Aladdin, China) every 3 days for 6 weeks (n = 6; 5 ml kg^−1 body weight). Mice injected with equivalent volume of corn oil serves as control group (n = 6). Liver fibrosis mice treated with JT003 for 3 weeks were used to evaluated the pharmacological effects (n = 6; 500 μg kg^−1; daily intraperitoneal injection).
TUNEL assay was performed using 5 μm liver sections and the apoptotic cells were identified using a Cell Death Detection kit (Beyotime Biotechnology, Shanghai, China). And then the slices were counterstained with DAPI (Life science, ThermoFisher Scientific, USA). Six random fields from 6 slides per mice were examined, and the TUNEL-positive red area within the slides were counted by two individuals who were blinded to the treatment.

HFD induced NASH mice = experiment: HFD mice: liver histology (HE, PAS, Oil Red O); format: in vivo, mouse; details: JT003 500 μg kg−1 i.p. daily 4 weeks, in words
Method: The NASH model was conducted with feeding a HFD for 16 weeks combine with a MCD diet (Methionine/Choline Deficient Diet, Medicience, China) in the last 4 weeks. Mice administered a MCS diet (Methionine/Choline Sufficient Diet, Medicience, China) serves as control group. NAFLD or NASH mice treated with JT003 for 4 weeks were used to evaluate the pharmacological effects (n = 6; 500 μg kg^−1; daily intraperitoneal injection). Food and water were provided ad libitum. The body weight of mice was examined every 3 days. The diet was renewed every 7 days. JT003 was diluted in PBS.
The levels of TG and HYP in liver tissue were detected with certain commercial assay kit (Nanjing Jiancheng Bioengineering Institute, China). Formalin-fixed liver tissues were embedded in paraffin, sectioned into 5 μm slices. After deparaffinization and rehydration of the section slices, they were stained with Haematoxylin and Eosin or Periodic Acid-Schiff. For the detection of liver collagen content, Sirius Red staining for collagen was performed. OCT-embedded frozen liver tissues were sectioned into 12 μm slices, and Oil Red O staining was performed. The cryostat-cut slices were stained with freshly prepared Oil Red O working solution for 7 min Two independent experimenters who were blinded to the treatment evaluated the staining slides and analyzed the score for steatosis, glucogen accumulation and collagen proliferation area.

AdipoR2 = molecular target: T1, AdipoR2 (Homo sapiens, UniProt Q86V24); experiment: HTRF binding, AdipoR2 overexpression HEK293 cells; details: in words
T1 construct: His; host or cells: HEK293
T1 sequence (Q86V24 1-386): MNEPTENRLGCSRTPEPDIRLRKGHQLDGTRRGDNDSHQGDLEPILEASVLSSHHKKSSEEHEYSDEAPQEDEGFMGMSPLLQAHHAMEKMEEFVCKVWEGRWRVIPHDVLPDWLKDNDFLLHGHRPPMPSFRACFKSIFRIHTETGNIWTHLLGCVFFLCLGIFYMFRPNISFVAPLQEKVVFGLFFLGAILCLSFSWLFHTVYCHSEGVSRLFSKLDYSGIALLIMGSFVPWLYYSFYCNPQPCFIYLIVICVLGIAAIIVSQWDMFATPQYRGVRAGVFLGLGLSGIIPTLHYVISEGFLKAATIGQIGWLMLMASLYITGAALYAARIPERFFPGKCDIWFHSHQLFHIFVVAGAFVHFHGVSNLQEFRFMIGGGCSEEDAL
Method: (§1) The expression plasmid of AdipoR1 and AdipoR2 were synthesized and codon optimized by Genescript (Nanjing, China) for their expression in HEK293 cell line. The concentration of FITC-JT003 was 0, 0.1, 0.25, 0.5, 1, 2.5 or 5 μM respectively. Unlabeled peptide JT003 was used as the control to measure the non-specific signal. 10E4 AdipoR1 and AdipoR2 overexpression cells, anti-His-Tb (ThermoFisher Scientific, USA) and JT003-FITC were added into a 384-well plate, with a total volume of 25μl. The mixtures were incubated at room temperature for 30 min in the dark. Fluorescent values at 520 nm and 620 nm were measured for Kd calculation.

AdipoR1 = molecular target: T2, AdipoR1 (Homo sapiens, UniProt Q96A54); experiment: HTRF binding, AdipoR1 overexpression HEK293 cells; details: in words
T2 construct: His; host or cells: HEK293
T2 sequence (Q96A54 1-375): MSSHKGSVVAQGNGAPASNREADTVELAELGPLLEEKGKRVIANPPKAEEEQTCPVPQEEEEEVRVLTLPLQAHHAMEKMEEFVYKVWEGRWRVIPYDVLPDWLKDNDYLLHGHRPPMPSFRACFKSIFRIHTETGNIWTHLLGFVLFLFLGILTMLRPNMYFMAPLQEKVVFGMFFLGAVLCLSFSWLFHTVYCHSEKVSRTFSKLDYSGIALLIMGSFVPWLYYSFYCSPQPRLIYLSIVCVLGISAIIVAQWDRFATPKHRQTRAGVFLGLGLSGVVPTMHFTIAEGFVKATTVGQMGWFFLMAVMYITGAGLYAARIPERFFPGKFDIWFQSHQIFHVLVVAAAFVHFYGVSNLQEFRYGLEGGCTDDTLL
Method: as §1

`CCC[C@H](NC(=O)[C@@H]1CCCN1)C(=O)N[C@@H](CC(C)C)C(=O)N[C@@H](Cc1ccc(O)cc1)C(=O)N[C@@H](Cc1ccc(O)cc1)C(=O)N[C@@H](Cc1ccccc1)C(=O)N[C@@H](C)C(N)=O` [JT003] (H-P[Nva]LYYFA-NH2) was tested, and the “mitochondrial content / biogenesis in PA induced HepG2” value (PA induced HepG2 cells) was “mitochondrial biogenesis was improved”, the “TUNEL, Supplementary Figure 16” value ([1]; replicate 1) was 0.177 and the “TUNEL, Supplementary Figure 16” value ([1]; replicate 2) was 0.215. The “TUNEL, Supplementary Figure 16” value ([1]; replicate 3) was 0.261, the “TUNEL, Supplementary Figure 16” value ([1]; replicate 4) was 0.303 and the “TUNEL, Supplementary Figure 16” value ([1]; replicate 5) was 0.387. The “TUNEL, Supplementary Figure 16” value ([1]; replicate 6) was 0.3, the “TUNEL, Supplementary Figure 16” value ([1]; replicate 7) was 0.353 and the “TUNEL, Supplementary Figure 16” value ([1]; replicate 8) was 0.189. The “TUNEL, Supplementary Figure 16” value ([1]; replicate 9) was 0.125, the “TUNEL, Supplementary Figure 16” value ([1]; replicate 10) was 0.252 and the “glycogen over accumulation (PAS staining and hepatocyte glycogen analysis)” value (HFD induced NASH mice) was “largely eliminated”. For the same molecule, the “lipid droplets in the liver (Oil red o staining)” value (HFD induced NASH mice) was “remarkably decreased lipid droplets”, the “steatosis and inflammation area (HE staining)” value (HFD induced NASH mice) was “decreased” and the “Kd value for AdipoR2 compared to JT006 and ADP355” value (AdipoR2) was “significantly lower Kd value”. For the same molecule, the “Kd value for AdipoR1 compared to JT006 and ADP355” value (AdipoR1) was “significantly lower Kd value”.
